# In article PMC6271642, “New Derivatives of 3,4-Dihydroisoquinoline-3-carboxylic Acid with Free-Radical Scavenging, D-Amino Acid Oxidase, Acetylcholinesterase and Butyrylcholinesterase Inhibitory Activity” (Molecules, 2014):
# Tests used:
# [1] = molecular target: T1, D-Amino acid oxidase from porcine kidney (DAAO) (Sus scrofa, UniProt P00371); test: colorimetric, […],4-dinitrophenylhydrazine detection of keto acid; type: biochemical; details: D-Ala substrate, 0.2 M Tris-HCl pH 8.2, 37 °C, 30 min
# T1 construct: gene DAO; native enzyme from porcine kidney, Sigma-Aldrich
# T1 sequence (P00371 whole entry): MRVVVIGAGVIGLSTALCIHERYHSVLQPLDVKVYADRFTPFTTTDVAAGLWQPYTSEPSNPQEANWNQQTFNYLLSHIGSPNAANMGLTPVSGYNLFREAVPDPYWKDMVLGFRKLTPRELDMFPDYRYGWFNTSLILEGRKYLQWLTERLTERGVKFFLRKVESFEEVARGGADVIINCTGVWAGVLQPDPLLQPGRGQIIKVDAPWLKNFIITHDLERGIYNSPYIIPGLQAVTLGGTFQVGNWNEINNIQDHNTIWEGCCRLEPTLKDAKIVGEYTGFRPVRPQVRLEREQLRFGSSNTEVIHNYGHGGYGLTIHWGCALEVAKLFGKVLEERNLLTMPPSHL
# [2] = molecular target: T1, D-Amino acid oxidase from porcine kidney (DAAO); test: as above; type: biochemical; details: read-out: DAAO Inhibition [IC50] ^c/[%] ^d
# [3] = molecular target: T2, butyrylcholinesterase from equine serum (BuChE) (Equus caballus, UniProt P81908); test: biochemical
# T2 construct: gene BCHE
# T2 sequence (P81908 whole entry): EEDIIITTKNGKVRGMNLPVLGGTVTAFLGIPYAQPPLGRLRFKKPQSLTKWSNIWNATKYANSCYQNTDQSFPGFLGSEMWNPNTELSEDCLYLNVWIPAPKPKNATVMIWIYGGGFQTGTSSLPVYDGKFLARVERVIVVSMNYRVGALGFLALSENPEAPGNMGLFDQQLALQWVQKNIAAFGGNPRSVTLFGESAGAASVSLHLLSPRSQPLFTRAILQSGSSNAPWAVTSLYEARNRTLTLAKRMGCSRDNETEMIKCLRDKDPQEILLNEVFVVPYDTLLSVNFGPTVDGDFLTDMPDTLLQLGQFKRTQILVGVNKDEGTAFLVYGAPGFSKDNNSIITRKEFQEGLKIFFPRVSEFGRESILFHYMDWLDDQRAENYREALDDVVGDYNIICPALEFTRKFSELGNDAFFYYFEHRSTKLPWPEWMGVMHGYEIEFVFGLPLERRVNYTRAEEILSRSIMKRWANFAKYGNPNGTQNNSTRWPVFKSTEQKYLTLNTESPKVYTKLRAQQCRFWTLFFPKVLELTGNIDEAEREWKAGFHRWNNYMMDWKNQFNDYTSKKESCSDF
# [4] = molecular target: acetylcholinesterase from Electrophorus electricus (AChE) (Electrophorus electricus, UniProt O42275); test: biochemical
# Sequence of acetylcholinesterase from Electrophorus electricus (AChE) (O42275 24-633): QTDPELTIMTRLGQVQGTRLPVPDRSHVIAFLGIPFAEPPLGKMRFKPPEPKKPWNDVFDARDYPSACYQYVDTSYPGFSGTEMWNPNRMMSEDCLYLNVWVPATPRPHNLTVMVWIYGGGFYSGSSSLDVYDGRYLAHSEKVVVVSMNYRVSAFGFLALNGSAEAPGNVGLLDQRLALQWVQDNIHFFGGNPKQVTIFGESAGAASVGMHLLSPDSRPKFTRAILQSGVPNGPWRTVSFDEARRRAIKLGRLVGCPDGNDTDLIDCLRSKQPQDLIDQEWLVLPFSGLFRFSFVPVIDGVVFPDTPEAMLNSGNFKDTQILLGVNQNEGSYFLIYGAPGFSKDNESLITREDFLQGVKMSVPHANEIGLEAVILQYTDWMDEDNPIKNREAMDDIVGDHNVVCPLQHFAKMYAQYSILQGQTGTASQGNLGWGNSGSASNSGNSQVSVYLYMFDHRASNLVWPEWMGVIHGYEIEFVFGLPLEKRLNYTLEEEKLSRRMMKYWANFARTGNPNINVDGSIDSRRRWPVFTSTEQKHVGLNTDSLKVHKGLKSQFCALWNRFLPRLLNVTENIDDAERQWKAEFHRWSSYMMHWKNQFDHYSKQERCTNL
SMILES,"DAAO Inhibition [IC50] ^c/[%] ^d ([1]; unreliable (above the highest final concentration of about 3.57 mM, extrapolated))","DAAO Inhibition [IC50] ^c/[%] ^d ([1]; 3570 µM, 3.57 mM compound)",IC50 [2],IC50 [3],IC50 [4]
"O=C(O)C1Cc2c(Br)ccc(O)c2C=N1 (racemic) [5a, 5-Bromo-8-hydroxy-3,4-dihydroisoquinolin-3-carboxylic acid]",8.46 mM,,,,
"O=C(O)C1Cc2ccc(Br)c(O)c2C=N1 (racemic) [5b, 7-Bromo-8-hydroxy-3,4-dihydroisoquinolin-3-carboxylic acid]",,13.88%,,,
"O=C(O)C1Cc2cc(O)cc(O)c2C=N1 (racemic) [5c, 6,8-Dihydroxy-3,4-dihydroisoquinolin-3-carboxylic acid]",,,1660 µM,,
"O=C(O)C1Cc2cc(O)c(O)c(I)c2C=N1 (racemic) [5d, 6,7-Dihydroxy-8-iodo-3,4-dihydroisoquinolin-3-carboxylic acid]",,,3350 µM,,
"O=C(O)C1Cc2cc(O)c(O)cc2C=N1 (racemic) [5e, 6,7-Dihydroxy-3,4-dihydroisoquinolin-3-carboxylic acid]",,7.52%,,370 µM,560 µM
"O=C(O)C1Cc2c(O)c(O)cc(Br)c2C=N1 (racemic) [5f, 8-Bromo-5,6-dihydroxy-3,4-dihydroisoquinolin-3-carboxylic acid]",,,2060 µM,,540 µM
"O=C(O)C1Cc2cc(O)c(O)c(Br)c2C=N1 (racemic) [5g, 8-Bromo-6,7-dihydroxy-3,4-dihydroisoquinolin-3-carboxylic acid]",,,2000 µM,,
"O=C(O)C1Cc2cc(O)c(O)c(Cl)c2C=N1 (racemic) [5h, 8-Chloro-6,7-dihydroxy-3,4-dihydroisoquinolin-3-carboxylic acid]",,,1740 µM,,820 µM
"O=C(O)C1Cc2cc(O)c(Br)c(O)c2C=N1 (racemic) [5j, 7-Bromo-6,8-dihydroxy-3,4-dihydroisoquinolin-3-carboxylic acid]",,11.50%,,640 µM,470 µM
"O=C(O)C1Cc2c(Cl)c(O)cc(O)c2C=N1 (racemic) [5k, 5-Chloro-6,8-dihydroxy-3,4-dihydroisoquinolin-3-carboxylic acid]",,7.27%,,1420 µM,590 µM
"O=C(O)C1Cc2c(cc(O)c(O)c2Cl)C=N1 (racemic) [5l, 5-Chloro-6,7-dihydroxy-3,4-dihydroisoquinolin-3-carboxylic acid]",,,1290 µM,170 µM,
"O=C(O)C1CCc2cc(O)c(O)cc2C=N1 (racemic) [compound 9, 7,8-Dihydroxy-4,5-dihydro-3H-2-benzazepine-3-carboxylic Acid]",,,550 µM,,2080 µM
"O=C(O)c1ccccc1 [Benzoic acid, reference compound]",,,2280 µM,,
"C[C@@]1(C(=O)O)Cc2cc(O)c(O)cc2C=N1 [compound 13, (S)-6,7-Dihydroxy-3-methyl-3,4-dihydroisoquinolin-3-carboxylic Acid]",,7.89%,,620 µM,1780 µM
"CC1(C(=O)O)Cc2cc(O)c(O)cc2C2C(Cl)C(=O)N21 (stereo not shown) [compound 15, 1-Chloro-7,8-dihydroxy-4-methyl-2-oxo-1,4,5,9b-tetrahydro-2H-azeto[2,1-a]-isoquinoline-4-carboxylic Acid]",,,2020 µM,1750 µM,
